Test results taken from article PMC10220285, “Development of an assay pipeline for the discovery of novel small molecule inhibitors of human glutathione peroxidases GPX1 and GPX4” (Redox Biology, 2023).

Biological target: T1, GPX1 (Homo sapiens, UniProt P07203)
T1 construct: made in house; host or cells: E. coli
T1 sequence (P07203 1-203): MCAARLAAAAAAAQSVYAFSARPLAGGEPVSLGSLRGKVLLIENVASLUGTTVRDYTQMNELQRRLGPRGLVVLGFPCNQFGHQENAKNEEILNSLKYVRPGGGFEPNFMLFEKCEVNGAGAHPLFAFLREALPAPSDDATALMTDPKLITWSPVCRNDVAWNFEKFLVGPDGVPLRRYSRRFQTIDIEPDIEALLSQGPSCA
Assay: Monobromobimane orthogonal endpoint assay, GPX1
Assay type: biochemical
Conditions: initial tests comparing GR-coupled and mBBr assay formats
Experimental: As an orthogonal assessment of GPX inhibition, a monobromobimane endpoint assay was used (Fig. 1E). Briefly, 30 μL GPX mixture (0.01% BSA and enzyme [1 nM GPX1 or 25 nM GPX4] in TES buffer) was added to columns 2–24 of 384-well black medium-binding plates (Greiner) using a BioRAPTR FRD. TES buffer was used as a no-enzyme control in column 1. Compounds and controls were added in 11-point dose-response titration and incubated with enzyme for 30 min whereupon 10 μL of 400 μM GSH in TES buffer was added before starting the reaction with the addition of 10 μL 200 μM CHP and the reaction was left at room temperature for 10 min (GPX1) or 15 min (GPX4). Upon GPX activity, GSH was depleted over time, whereupon 500 μM mBBr was added and fluorescence at 394/490 was measured using a Viewlux multimodal detector every 20 s for 20 min.
Percent activity was determined by first calculating delta RFU (decrease in fluorescence between t = 0 and t = 20/30 min in primary GPX, GR counter-screen, and TXNRD1 assays, or increase in fluorescence between t = 0 and t = 20 min in the Monobromobimane GPX endpoint assay), and normalizing enzyme activity using median delta RFU values for DMSO-treated enzyme control, and DMSO-treated no-enzyme controls.
Monobromobimane (mBBr) is a heterocyclic compound that reacts readily with low molecular weight thiols, like glutathione. […]

Q: Which IC50 does the source give for `CC(=O)OC[C@H]1O[C@@H]([S-])[C@H](OC(C)=O)[C@@H](OC(C)=O)[C@@H]1OC(C)=O.CCP(CC)CC.[Au+]` [Auranofin] here?
A: 5.3 µM
